Laboratory results reported in patent US20160374944A1, “COMPOSITIONS AND METHODS FOR TREATING AND PREVENTING CANCER BY TARGETING AND INHIBITING CANCER STEM CELLS” (priority 2011, published 2016).

Key:
[1] = tested on: Pancreatic CSCs; experiment: gene expression by qRT-PCR; format: cell-based, human
Description: FIG. 19 is a graph showing the regulation by rottlerin of cMyc, Nanog, Oct-4, and Sox-2 in pancreatic CSCs. Pancreatic CSCs were treated with rottlerin (0-1 μM) for 24 h. The expression of Nanog, Sox-2 and cMyc was measured by qRT-PCR and normalized to GAPDH.
(A) Pancreatic CSCs were treated with rottlerin (0-1 μM) for 24 h. The expression of Patched-1, Smo and Gli-2 was measured by qRT-PCR. […] (B) Pancreatic CSCs were transduced with Gli-responsive GFP/firefly luciferase viral particles (pGreen Fire1-Gli with EF1, System Biosciences). After transduction, culture medium was replaced and CSCs were treated with rottlerin (0-2 μM) for 24 h. Gli-responsive reporter activity was measured using a luciferase assay (Promega Corporation).
(A and B) Induction of apoptosis and activation of caspase-3/-7. Pancreatic CSCs were treated with rottlerin (0-2 μM) for 48 h, and apoptosis and caspase-3/-7 activity were measured by […] and colorometric assay, respectively. […] (C) Pancreatic CSCs were treated with rottlerin (0-1 μM) for 48 h, and the expression of Bcl-2, XIAP and Survivin was measured by qRT-PCR and normalized to GAPDH.
(A and B) Pancreatic CSCs were treated with rottlerin (0-1 μM) for 24 h. The expression of Zeb-1 and Slug was measured by the qRT-PCR and normalized to GAPDH. […] (C) In vitro Matrigel invasion assay. CSCs were plated onto the Matrigel-coated membrane in the top chamber of the transwell and treated with rottlerin (0-2 μM) for 48 h. Cells invaded to the lower chamber were fixed with methanol, stained with crystal violet and photo micrographed.
(A) Regulation of caspase-3/7 activity by EGCG. CSCs were treated with EGCG (0-60 μM) for 24 h, and caspase-3/7 activity was measured as per manufacturer's instructions. […] (B) Regulation of apoptosis by EGCG. CSCs were treated with EGCG (0-60 μM) for 48 h, and apoptosis was measured by TUNEL assay. […] (C) Regulation of apoptosis-related proteins. Pancreatic CSCs were treated with EGCG (0-60 μM) for 36 h. Real time PCR (q-RT-PCR) was performed to examine the expression of Bcl-2, survivin, XIAP, and GAPDH.
[…] At the end of incubation period, cells were harvested and the expression of Nanog, Sox-2, c-Myc and Oct-4 was measured by the q-RT-PCR. […] (B) Nanog shRNA enhances the inhibitory effects of EGCG on CSC's spheroid viability. Pancreatic CSCs were transduced with either scrambled shRNA or Nanog shRNA expressing lentiviral vector (pLKO.1), and cell lysates were collected and western blot analysis was performed using anti-Nanog antibody (data not shown). CSC/scrambled and CSC/Nanog shRNA were seeded as described above and treated with EGCG (0-60 μM). After 7 days, spheroids were collected and cell suspensions were prepared and viable cells were counted by trypan blue assay.
FIG. 40A and FIG. 40C are graphs and photographs showing the inhibition of components of sonic hedgehog pathway, Gli transcription and nuclear translocation by EGCG. (A) Inhibition of components of sonic hedgehog pathway and Gli transcription. Pancreatic CSCs were treated with EGCG (0-60 μM) for 36 h. The expression of Smothened (Smo), patched 1 (PTCH1), patched 2 (PTCH2), was measured by q-RT-PCR. […] (B) Inhibition of Gli1 and Gli2 expression and Gli transcription. Pancreatic CSCs were treated with EGCG (0-60 μM) for 36 h. The expression of Gli1 and Gli2 was measured by q-RT-PCR. Gli reporter activity. CSCs were transduced with Gli-responsive GFP/firefly luciferase viral particles (pGreen Fire1-Gli with EF1, System Biosciences). After transduction, culture medium was replaced and CSCs were treated with EGCG (0-60 μM) for 24 h. Gli-responsive reporter activity was measured by luciferase assay (Promega Corporation). […] (C) EGCG inhibits nuclear translocation of Gli1 and Gli2. Pancreatic CSCs were treated with or without EGCG (40 or 60 μM) for 24 h. At the end of incubation period, CSCs were fixed with paraformaldehyde, permeabilized with titron X100, and blocked with 5% normal goat serum. […]

[2] = tested on: Pancreatic CSCs; experiment: cell viability, trypan blue, Vi-CELL analyzer; format: cell-based, human; details: 3 days
Description: Pancreatic CSCs were treated with resveratrol (0-20 μM), curcumin (0-20 μM), honokiol (0-20 μM) and diallyl trisulphide (0-20 μM) for 3 days, and cell viability was measured by staining with trypan blue using Vi-CELL analyzer (Beckman Counter).
Pancreatic CSCs were treated with sulforaphane (0-20 μM), rottlerin (0-2 μM), EGCG (0-60 μM) and embelin (0-5 μM) for 3 days, and cell viability was measured by staining with trypan blue using Vi-CELL analyzer (Beckman Counter).
(A) Pancreatic CSCs were treated with SAHA (3 and 5 μM) and 5-Aza-dc (2 and 4 μM) and cell viability was measured at 48 h by staining with trypan blue using Vi-CELL analyzer (Beckman Counter). (B) Pancreatic CSCs were untreated (a) or treated with SAHA (b) or 5-Aza-dC (c) for 48 h, and apoptosis was measured by staining with annexin-PI using Accuri Flow Cytometer. (C) Caspase-3/7 activity was measured in pancreatic CSCs treated with SAHA (0.5 and 2 μM) or 5-Aza-dC (1 and 3 μM) for 25 h.
Pancreatic CSCs were treated with resveratrol (0-20 μM), curcumin (0-20 μM), honokiol (0-20 μM), and diallyl trisulphide (0-20 μM) for 3 days and cell viability was measured by staining with trypan blue using Vi-CELL analyzer. The results of those studies are illustrated in FIG. 27.
Pancreatic CSCs were treated with sulforaphane (0-20 μM), rottlerin (0-2 μM), EGCG (0-60 μM), and embelin (0-5 μM) for 3 days and cell viability was measured by staining with trypan blue using Vi-CELL analyzer. The results of those studies are illustrated in FIG. 28.
Pancreatic CSCs were treated with SAHA […] Vorinostat (3 and 5 μM) and 5-Aza-2′-deoxycytidine (5-Aza-dC, 2 and 4 μM) and cell viability was measured at 48 hours by staining with trypan blue using Vi-CELL analyzer. The results of those studies are illustrated in FIG. 31A.

[3] = qRT-PCR, rottlerin 0-1 μM, 24 h
[4] = qRT-PCR, rottlerin 0-1 μM, 48 h

SMILES: O=C(O[C@@H]1Cc2c(O)cc(O)cc2O[C@@H]1c1cc(O)c(O)c(O)c1)c1cc(O)c(O)c(O)c1 [EGCG, epigallocatechin gallate]
- expression of Bcl-2 ([1]; q-RT-PCR, EGCG 0-60 μM, 36 h): inhibited the expression
- expression of Gli1 ([1]; q-RT-PCR, EGCG 0-60 μM, 36 h): inhibited the expression
- expression of Gli2 ([1]; q-RT-PCR, EGCG 0-60 μM, 36 h): inhibited the expression
- expression of Nanog ([1]; q-RT-PCR, EGCG 0-60 μM, 36 h): inhibited the expression
- expression of Oct-4 ([1]; q-RT-PCR, EGCG 0-60 μM, 36 h): inhibited the expression
- expression of Patched-1 ([1]; q-RT-PCR, EGCG 0-60 μM, 36 h): inhibited the expression
- expression of Patched-2 ([1]; q-RT-PCR, EGCG 0-60 μM, 36 h): inhibited the expression
- expression of Sox-2 ([1]; q-RT-PCR, EGCG 0-60 μM, 36 h): no effect on the expression
- expression of XIAP ([1]; q-RT-PCR, EGCG 0-60 μM, 36 h): inhibited the expression
- expression of c-Myc ([1]; q-RT-PCR, EGCG 0-60 μM, 36 h): inhibited the expression
- expression of smoothened (SMO) ([1]; q-RT-PCR, EGCG 0-60 μM, 36 h): inhibited the expression
- expression of survivin ([1]; q-RT-PCR, EGCG 0-60 μM, 36 h): inhibited the expression
- expression of Slug ([1]; q-RT-PCR, EGCG 0-60 μM, 48 h): inhibited the expression
- expression of Snail ([1]; q-RT-PCR, EGCG 0-60 μM, 48 h): inhibited the expression
- expression of ZEB1 ([1]; q-RT-PCR, EGCG 0-60 μM, 48 h): inhibited the expression
- cell viability [2]: inhibit cell viability

SMILES: C[S+]([O-])CCCCN=C=S (centres unmarked) [sulforaphane]
- cell viability [2]: inhibit cell viability

SMILES: CC(=O)c1c(O)c(C)c(O)c(Cc2c(O)c3c(c(C(=O)/C=C/c4ccccc4)c2O)OC(C)(C)C=C3)c1O [rottlerin]
- expression of Gli2 [1, 3]: inhibited the expression
- expression of Nanog [1, 3]: inhibited the expression
- expression of Patched-1 [1, 3]: inhibited the expression
- expression of Slug [1, 3]: inhibited the expression
- expression of Smo [1, 3]: inhibited the expression
- expression of Sox-2 [1, 3]: inhibited the expression
- expression of Zeb-1 [1, 3]: inhibited the expression
- expression of cMyc [1, 3]: inhibited the expression
- expression of Bcl-2 [1, 4]: inhibited the expression
- expression of XIAP [1, 4]: inhibited the expression
- expression of survivin [1, 4]: inhibited the expression
- cell viability [2]: inhibit cell viability
